Read-outs that look alike come from different tables or passages of the source.
What was measured:
[1] = tested on: A2780 ovarian cancer cells; parameters: method as in PMID 32391537; conditions: MTT, starred values, cited from earlier work
[2] = tested on: OVCAR8 ovarian cancer cells; assay: MTT cytotoxicity assay in OVCAR8 (cisplatin resistant) ovarian cancer cells; assay type: cell-based, human; conditions: 48 h incubation
Description: (§1) Cells were exposed to increasing concentrations of the complexes (0.01–100 μM) for 24 and/or 48 h, at 37 °C. The IC50 values were calculated from dose–response curves using the colorimetric MTT assay. […] Most complexes presented a similar cytotoxicity profile compared to Auranofin, but higher activity compared to Cisplatin, and, most importantly, were active in the Cisplatin-resistant OVCAR8 cells (Table 2).
(§2) The cytotoxic activity of the complexes was evaluated in the A2780 (cisplatin sensitive) (Sigma-Aldrich) and OVCAR8 (cisplatin resistant) (ATCC) ovarian cancer cells. Cells were grown in RPMI-1640 medium (Gibco, Thermo Fisher) supplemented with 10% fetal bovine serum (FBS) and were maintained at 37 °C in a humidified atmosphere with 5% CO2. The complexes were initially dissolved in DMSO and then in culture medium to prepare serial dilutions in the range 10^−9–10^−4 M. After 24 and/or 48 h incubation the cellular viability was measured by the colorimetric MTT assay, as previously described.

ΦX174 supercoiled DNA = assay: Electrophoretic mobility of supercoiled DNA; assay type: binding; conditions: 24 h, 37 °C, in words
Description: The potential interaction of the complexes with DNA was evaluated through the assessment of the electrophoretic mobility of supercoiled ϕX174 DNA, using a previously described method. To that end, a mixture was prepared containing 200 ng of supercoiled ϕX174 DNA (Promega) in 10 mM of phosphate buffer (pH 7.2) and increasing concentrations of Cisplatin, as a positive control, or the metal complexes (in a total volume of 20 μL). The mixture was incubated for 24 h at 37 °C, in the dark. As controls, samples having non-incubated plasmid and plasmid incubated with DMSO were also prepared. Then, all samples were prepared for electrophoresis through the addition of 2 μL of 10× DNA loading buffer (Applichem) and loading on an 0.8% agarose gel in TBE buffer (Thermo Fisher Scientific, Waltham, MA, USA). The gel was run at 90 V for approximately 3 h, stained using a 3× GelRed® (Biotium) solution in H2O, and the bands visualized using an AlphaImagerEP (Alpha Innotech) under UV light.

[3] = biological target: human serum albumin (HSA) (Homo sapiens, UniProt P02768); parameters: method as in PMID 26469679, PMID 22835721, PMID 32283915, doi:10.1016/j.jlumin.2011.06.005; conditions: cited from earlier work
[4] = tested on: A2780 ovarian cancer cells; assay: MTT cytotoxicity assay in A2780 (cisplatin sensitive) ovarian cancer cells; assay type: cell-based, human; conditions: 24 h incubation, read-out: IC50 A2780, 24 h
Description: as §1, §2

S. aureus Newman = tested on: S. aureus Newman; parameters: method as in PMID 32391537; conditions: complexes starred as Complex 1 / Complex 2; cited from earlier work
C. albicans SC5134 = tested on: C. albicans SC5134; parameters: method as in PMID 32391537; conditions: complexes starred as Complex 1 / Complex 2; cited from earlier work
C. glabrata CBS138 = tested on: C. glabrata CBS138; parameters: method as in PMID 32391537; conditions: complexes starred as Complex 1 / Complex 2; cited from earlier work
E. coli ATCC25922 = tested on: E. coli ATCC25922; parameters: method as in PMID 32391537; conditions: complexes starred as Complex 1 / Complex 2; cited from earlier work
[5] = 48 h incubation, read-out: IC50 A2780, 48 h

Chain of human serum albumin (HSA) (P02768 25-609): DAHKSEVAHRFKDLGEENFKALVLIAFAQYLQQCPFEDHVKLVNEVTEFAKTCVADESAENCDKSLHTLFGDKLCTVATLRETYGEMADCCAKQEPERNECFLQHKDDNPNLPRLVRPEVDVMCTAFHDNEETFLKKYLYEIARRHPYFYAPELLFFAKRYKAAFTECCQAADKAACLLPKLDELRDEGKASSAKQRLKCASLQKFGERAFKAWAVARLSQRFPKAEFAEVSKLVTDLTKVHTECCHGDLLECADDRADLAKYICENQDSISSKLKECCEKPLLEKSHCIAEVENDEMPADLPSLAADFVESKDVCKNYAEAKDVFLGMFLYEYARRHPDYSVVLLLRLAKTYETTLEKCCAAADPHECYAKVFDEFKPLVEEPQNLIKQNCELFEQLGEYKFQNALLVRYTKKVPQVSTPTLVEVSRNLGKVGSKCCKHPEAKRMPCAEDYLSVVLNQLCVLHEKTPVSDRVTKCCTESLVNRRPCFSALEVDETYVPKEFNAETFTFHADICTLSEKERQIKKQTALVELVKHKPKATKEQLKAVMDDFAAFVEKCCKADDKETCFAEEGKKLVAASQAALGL

For `N.N.[Cl][Pt][Cl]` [Cisplatin, reference compound], the IC50 [1, 5] is listed as 3.6 ± 1.25 µM, the IC50 [2] is listed as 10.1 ± 2.3 µM and the “conformational changes / electrophoretic mobility of DNA” value (ΦX174 supercoiled DNA) is listed as “able to alter the electrophoretic mobility of the nicked and supercoiled forms of DNA in a dose-dependent way”. The “binding constant to HSA” value [3] was 10^2 M^−1 and the IC50 [4] was 21.1 ± 5 µM.
In the case of `CC[N+](CC)(CC)CC.CCn1c2c(sc1=S)[S][Au-]1([S]c3sc(=S)n(CC)c3[S]1)[S]2` [[N][AuSEt(=S)]], the IC50 ([1]; 24 h incubation, read-out: IC50 A2780, 24 h) is given as 4.23 ± 0.8 µM, the IC50 [1, 5] is given as 1.3 ± 0.32 µM and the IC50 [2] is given as 3.76 ± 0.71 µM. The “MIC S. aureus Newman” value (S. aureus Newman) was 12.1 ± 3.9 µg/mL, the “MIC C. albicans SC5134” value (C. albicans SC5134) was 19.9 ± 2.4 µg/mL and the “MIC C. glabrata CBS138” value (C. glabrata CBS138) was 9.7 ± 2.7 µg/mL. For the same compound, the “MIC E. coli ATCC25922” value (E. coli ATCC25922) was >125 µg/mL.
